Test system: hypothalamus–pituitary–adrenal axis hormones
Assay: Hormones of the HPA axis: difference from baseline
Format: in vivo, human
Procedure: Safety and tolerability of BI 187004 were assessed in a descriptive way using the following investigations: recording of adverse events, clinical laboratory parameters (haematology, coagulation, enzymes, substrates, electrolytes, hormones, and urinalysis), vital signs (blood pressure, puls rate), 12-lead ECG (electrocardiogram) with special attention to QTc prolongation, and physical examination (occurrence of findings).

## N#Cc1ccc2c(c1)[C@H]1CCCN(C(=O)c3ccc4[nH]cnc4c3)[C@H]1C2 [BI 187004]
2.5 mg single oral dose, 24:00
  ACTH mean difference from baseline: 0.59 pmol/L
  Androstenedione mean difference from baseline: 0.2 nmol/L
  Cortisol mean difference from baseline: -77.1 nmol/L
  DHEA-s mean difference from baseline: 0.7 µmol/L
  SHBG mean difference from baseline: 2.6 nmol/L
  Total Testosterone mean difference from baseline: 0.1 nmol/L
2.5 mg single oral dose, 96:00
  ACTH mean difference from baseline: -0.46 pmol/L
  Androstenedione mean difference from baseline: -1.8 nmol/L
  Cortisol mean difference from baseline: -65.3 nmol/L
  DHEA-s mean difference from baseline: 2.1 µmol/L
  SHBG mean difference from baseline: -0.1 nmol/L
  Total Testosterone mean difference from baseline: -0.3 nmol/L
5 mg single oral dose, 24:00
  ACTH mean difference from baseline: 0.53 pmol/L
  Androstenedione mean difference from baseline: 1.2 nmol/L
  Cortisol mean difference from baseline: 1.8 nmol/L
  DHEA-s mean difference from baseline: 1.6 µmol/L
  SHBG mean difference from baseline: 3.0 nmol/L
  Total Testosterone mean difference from baseline: -0.9 nmol/L
5 mg single oral dose, 96:00
  ACTH mean difference from baseline: -1.65 pmol/L
  Androstenedione mean difference from baseline: -3.7 nmol/L
  Cortisol mean difference from baseline: -75.0 nmol/L
  DHEA-s mean difference from baseline: 0.9 µmol/L
  SHBG mean difference from baseline: 2.7 nmol/L
  Total Testosterone mean difference from baseline: -0.7 nmol/L
10 mg single oral dose, 24:00
  ACTH mean difference from baseline: 0.78 pmol/L
  Androstenedione mean difference from baseline: 1.3 nmol/L
  Cortisol mean difference from baseline: -78.7 nmol/L
  DHEA-s mean difference from baseline: 1.2 µmol/L
  SHBG mean difference from baseline: 3.4 nmol/L
  Total Testosterone mean difference from baseline: -0.2 nmol/L
10 mg single oral dose, 96:00
  ACTH mean difference from baseline: -1.35 pmol/L
  Androstenedione mean difference from baseline: -3.4 nmol/L
  Cortisol mean difference from baseline: -128.8 nmol/L
  DHEA-s mean difference from baseline: 1.9 µmol/L
  SHBG mean difference from baseline: 0.2 nmol/L
  Total Testosterone mean difference from baseline: -2.0 nmol/L
20 mg single oral dose, 24:00
  ACTH mean difference from baseline: 1.53 pmol/L
  Androstenedione mean difference from baseline: 3.7 nmol/L
  Cortisol mean difference from baseline: 18.4 nmol/L
  DHEA-s mean difference from baseline: 2.2 µmol/L
  SHBG mean difference from baseline: 2.9 nmol/L
  Total Testosterone mean difference from baseline: -1.3 nmol/L
20 mg single oral dose, 96:00
  ACTH mean difference from baseline: -0.58 pmol/L
  Androstenedione mean difference from baseline: 3.8 nmol/L
  Cortisol mean difference from baseline: -34.1 nmol/L
  DHEA-s mean difference from baseline: 2.1 µmol/L
  SHBG mean difference from baseline: 1.3 nmol/L
  Total Testosterone mean difference from baseline: -1.0 nmol/L
40 mg single oral dose, 24:00
  ACTH mean difference from baseline: 1.44 pmol/L
  Androstenedione mean difference from baseline: 3.7 nmol/L
  Cortisol mean difference from baseline: -48.8 nmol/L
  DHEA-s mean difference from baseline: 1.7 µmol/L
  SHBG mean difference from baseline: 0.6 nmol/L
  Total Testosterone mean difference from baseline: -0.5 nmol/L
40 mg single oral dose, 96:00
  ACTH mean difference from baseline: -0.01 pmol/L
  Androstenedione mean difference from baseline: 0.1 nmol/L
  Cortisol mean difference from baseline: -75.5 nmol/L
  DHEA-s mean difference from baseline: 2.3 µmol/L
  SHBG mean difference from baseline: -1.8 nmol/L
  Total Testosterone mean difference from baseline: -0.8 nmol/L
80 mg single oral dose, 24:00
  ACTH mean difference from baseline: 4.69 pmol/L
  Androstenedione mean difference from baseline: 8.1 nmol/L
  Cortisol mean difference from baseline: 102.6 nmol/L
  DHEA-s mean difference from baseline: 2.6 µmol/L
  SHBG mean difference from baseline: 2.1 nmol/L
  Total Testosterone mean difference from baseline: 0.8 nmol/L
80 mg single oral dose, 96:00
  ACTH mean difference from baseline: 1.36 pmol/L
  Androstenedione mean difference from baseline: 0.5 nmol/L
  Cortisol mean difference from baseline: -64.4 nmol/L
  DHEA-s mean difference from baseline: 2.4 µmol/L
  SHBG mean difference from baseline: -1.3 nmol/L
  Total Testosterone mean difference from baseline: 0.6 nmol/L
160 mg single oral dose, 24:00
  ACTH mean difference from baseline: 1.34 pmol/L
  Androstenedione mean difference from baseline: 2.6 nmol/L
  Cortisol mean difference from baseline: -49.2 nmol/L
  DHEA-s mean difference from baseline: 1.6 µmol/L

From article PMC8364686, “Safety, tolerability, pharmacokinetics and pharmacodynamics of single oral doses of BI 187004, an inhibitor of 11beta-hydroxysteroid dehydrogenase-1, in healthy male volunteers with overweight or obesity” (Clinical Diabetes and Endocrinology, 2021)
